Test results reported in ChEMBL document CHEMBL1152243, “Preliminary SAR studies on non-apamin-displacing 4-(aminomethylaryl)pyrrazolopyrimidine K(Ca) channel blockers” (Bioorg Med Chem Lett, 2008).
Calls of active or inactive are those of the source. The calls are words filed in the database; no cut-off is given here.

How the values were obtained:
Format in all cases: cell-based
[1] = target: T1, Small conductance calcium-activated potassium channel protein 3 (Homo sapiens, UniProt Q9UGI6); experiment: Inhibition of Kca2.3 channel expressed in HEK293 cells by thallium flux assay
T1 sequence (Q9UGI6 whole entry): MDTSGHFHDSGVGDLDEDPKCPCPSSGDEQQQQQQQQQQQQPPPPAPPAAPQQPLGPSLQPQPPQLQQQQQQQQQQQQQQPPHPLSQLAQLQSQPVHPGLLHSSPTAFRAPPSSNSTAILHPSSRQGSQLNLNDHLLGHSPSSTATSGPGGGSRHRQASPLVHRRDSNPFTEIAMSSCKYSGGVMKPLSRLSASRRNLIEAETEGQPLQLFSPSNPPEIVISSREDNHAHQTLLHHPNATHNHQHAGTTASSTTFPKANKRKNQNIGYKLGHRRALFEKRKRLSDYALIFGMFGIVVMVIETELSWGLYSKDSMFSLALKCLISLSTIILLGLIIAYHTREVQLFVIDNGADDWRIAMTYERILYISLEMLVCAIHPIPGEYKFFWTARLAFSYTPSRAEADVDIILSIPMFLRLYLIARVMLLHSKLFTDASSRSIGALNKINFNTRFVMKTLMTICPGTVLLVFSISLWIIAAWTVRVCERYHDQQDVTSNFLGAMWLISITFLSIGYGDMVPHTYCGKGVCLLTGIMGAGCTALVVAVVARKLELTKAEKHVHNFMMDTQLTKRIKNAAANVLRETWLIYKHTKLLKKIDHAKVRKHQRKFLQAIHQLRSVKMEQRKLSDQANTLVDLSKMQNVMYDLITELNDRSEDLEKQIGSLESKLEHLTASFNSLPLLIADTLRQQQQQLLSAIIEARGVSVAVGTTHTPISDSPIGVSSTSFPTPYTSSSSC

[2] = target: T1, Small conductance calcium-activated potassium channel protein 3; experiment: Inhibition of Kca2.3 channel expressed in HEK293 cells at 30 uM by thallium flux assay
[3] = target: T1, Small conductance calcium-activated potassium channel protein 3; experiment: Inhibition of Kca2.3 channel expressed in HEK293 cells by electrophysiology assay
[4] = target: Small conductance calcium-activated potassium channel protein 1 (Homo sapiens, UniProt Q92952); experiment: Inhibition of Kca2.1 channel expressed in HEK293 cells by thallium flux assay
Chain of Small conductance calcium-activated potassium channel protein 1 (Q92952 whole entry): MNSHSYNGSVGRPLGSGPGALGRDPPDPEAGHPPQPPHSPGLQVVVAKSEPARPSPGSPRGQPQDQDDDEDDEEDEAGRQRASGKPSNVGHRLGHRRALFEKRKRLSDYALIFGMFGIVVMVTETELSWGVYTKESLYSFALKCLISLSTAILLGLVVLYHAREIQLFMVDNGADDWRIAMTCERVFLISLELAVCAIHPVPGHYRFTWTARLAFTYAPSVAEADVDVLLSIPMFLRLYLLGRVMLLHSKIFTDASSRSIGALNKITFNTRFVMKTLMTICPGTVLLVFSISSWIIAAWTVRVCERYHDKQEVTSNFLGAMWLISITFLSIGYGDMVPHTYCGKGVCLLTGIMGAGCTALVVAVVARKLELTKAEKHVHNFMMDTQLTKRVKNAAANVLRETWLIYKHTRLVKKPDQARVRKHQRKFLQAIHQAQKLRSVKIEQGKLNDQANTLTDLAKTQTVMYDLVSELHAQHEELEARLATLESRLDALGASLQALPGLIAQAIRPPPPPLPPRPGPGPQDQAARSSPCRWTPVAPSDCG

[5] = target: Small conductance calcium-activated potassium channel protein 2 (Homo sapiens, UniProt Q9H2S1); experiment: Inhibition of Kca2.2 channel expressed in HEK293 cells by thallium flux assay
Chain of Small conductance calcium-activated potassium channel protein 2 (Q9H2S1 whole entry): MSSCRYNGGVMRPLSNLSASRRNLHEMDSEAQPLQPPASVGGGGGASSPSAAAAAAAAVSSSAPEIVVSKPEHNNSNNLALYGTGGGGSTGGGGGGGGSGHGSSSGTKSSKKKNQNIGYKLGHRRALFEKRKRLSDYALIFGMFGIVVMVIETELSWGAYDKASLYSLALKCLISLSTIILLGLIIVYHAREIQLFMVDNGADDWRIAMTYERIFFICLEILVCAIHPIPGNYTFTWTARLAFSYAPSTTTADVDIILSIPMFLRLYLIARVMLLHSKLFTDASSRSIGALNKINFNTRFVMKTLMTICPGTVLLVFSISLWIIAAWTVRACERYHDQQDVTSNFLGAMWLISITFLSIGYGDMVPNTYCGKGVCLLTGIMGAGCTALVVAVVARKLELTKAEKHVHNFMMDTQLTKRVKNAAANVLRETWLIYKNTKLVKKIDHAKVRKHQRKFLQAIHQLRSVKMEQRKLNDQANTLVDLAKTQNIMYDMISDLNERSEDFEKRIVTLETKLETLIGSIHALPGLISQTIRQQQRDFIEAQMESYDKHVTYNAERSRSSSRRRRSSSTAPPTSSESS

[6] = target: T1, Small conductance calcium-activated potassium channel protein 3; experiment: Displacement of [125I]apamin from Kca2.3 channel expressed in HEK293 cells by scintillation proximity assay

Row | Compound | IC50 [1] [µM] | inhibition [2] [%] | also measured
1 | O=[N+]([O-])c1cccc(CNc2cc(Cl)nc3ccnn23)c1 | 7.9 | 96 | –
2 | Clc1cc(NCc2ccccc2)n2nccc2n1 | 1.1 | 113 | IC50 [3]: 1.6 µM; IC50 [4]: 1.19 µM; IC50 [5]: 1.1 µM
3 | C[C@@H](Nc1cc(Cl)nc2ccnn12)c1ccccc1 | 1 | – | –
4 | Clc1ccc(CNc2cc(Cl)nc3ccnn23)cc1 | > 30 | 30 | –
5 | Cc1cccc(CNc2cc(Cl)nc3ccnn23)c1 | 10.7 | 91 | –
6 | Cc1ccccc1CNc1cc(Cl)nc2ccnn12 | 14.6 | 75 | –
7 | Clc1cc(NC(Cc2ccccc2)c2ccccc2)n2nccc2n1 (stereo unspecified) | 7.5 | – | –
8 | Clc1cc(NCc2ccncc2)n2nccc2n1 | – | – | Activity [1]: inactive
9 | FC(F)(F)Oc1ccc(CNc2cc(Cl)nc3ccnn23)cc1 | 15.4 | 62 | –
10 | Clc1cc(NCc2cccs2)n2nccc2n1 | 0.35 | 105 | IC50 [3]: 0.58 µM; IC50 [4]: 0.3 µM; Activity [6]: inactive; IC50 [5]: 0.53 µM
11 | Clc1cc(NCc2ccc(Cl)c(Cl)c2)n2nccc2n1 | > 30 | 25 | –
12 | FC(F)(F)Oc1ccccc1CNc1cc(Cl)nc2ccnn12 | 10 | 87 | –
13 | Cc1ccc(CNc2cc(Cl)nc3ccnn23)cc1 | > 30 | 46 | –
14 | FC(F)(F)c1ccccc1CNc1cc(Cl)nc2ccnn12 | > 30 | 50 | –
15 | Clc1cc(NCc2ccc(Oc3ccccc3)cc2)n2nccc2n1 | > 30 | 23 | –
16 | O=[N+]([O-])c1ccc(CNc2cc(Cl)nc3ccnn23)cc1 | > 30 | 25 | –
17 | Clc1cccc(CNc2cc(Cl)nc3ccnn23)c1 | 5.2 | 113 | –
18 | FC(F)(F)c1ccc(CNc2cc(Cl)nc3ccnn23)cc1 | > 30 | 43 | –
19 | COc1ccccc1CNc1cc(Cl)nc2ccnn12 | 15.9 | 74 | –
20 | Clc1cc(Cl)cc(CNc2cc(Cl)nc3ccnn23)c1 | > 30 | 43 | –
21 | C[C@H](Nc1cc(Cl)nc2ccnn12)c1ccccc1 | – | – | Activity [1]: inactive
22 | FC(F)(F)c1cccc(CNc2cc(Cl)nc3ccnn23)c1 | 14.6 | 80 | –
23 | Clc1cc(NCc2ccccc2Cl)n2nccc2n1 | 19.1 | 62 | –
24 | FC(F)(F)Oc1cccc(CNc2cc(Cl)nc3ccnn23)c1 | 11 | 71 | –
